One series deals with CYP3A4. As to the kind of experiment: Hepatocyte CYP induction assay, CYP3A4 gene expression. The series is classed as in vitro ADME. The conditions noted are these: human hepatocytes. The method, then:
Exemplary compounds were tested for ability to induce CYP3A4 and/or CYP1A2 in hepatocytes. Procedures and results are described below.
Cryopreserved human hepatocytes were purchased from BioIVT (Baltimore, MD, USA), and they were stored in liquid nitrogen before using. The detailed information of hepatocytes is as follows:
Fresh dosing solutions of test compounds, and Rifampicin were prepared in the incubation medium on the day of dosing.
Cryopreserved hepatocytes were thawed and counted to determine yield, viability was measured. Hepatocytes at the concentrations of 0.7 million/mL were transferred to collagen-coated 96-well plates for attachment (0.1 mL viable cells/well). After allowing 4 to 5 hours for attachment of cells, the plating medium was replaced with Incubation Medium containing 2% (v/v) Matrigel™ (sandwich medium) and the hepatocytes were incubated until use.
All incubations were conducted at 37° C., 5% CO2, and saturated humidity.
The sandwich medium was removed and the hepatocytes were treated with incubation solutions containing test articles in vehicle (0.1% DMSO), or positive control for 24 hours after the cultures were established. The incubation solution was aspirated and replaced with incubation solution containing the same concentrations of test articles, vehicle, or positive controls for an additional 24 hours. The total treatment period was 48 hours. Triplicate were used for each concentration of test compound and positive control.
After treatment period of 48 hours, the incubation solution was aspirated. Hepatocytes were washed once with pre-warmed HBSS and incubated with 140 μL of RLT (lysis buffer from Rneasy 96 Kit) supplemented with 1% β-mercaptoethanol. Plates were then stored at ≤−60° C. freezer until RNA analysis.
Before RNA extraction, the frozen plate was thawed and cell lysates were transferred to 96-well plates. RNA isolation was performed using QIAcube HT System. RNA concentration was measured with NanoDrop ND-2000 spectrophotometer. The purity of RNA preparation was calculated by the ratio of the OD260 nm/OD280 nm and the acceptable range is between 1.8 and 2.2. Reverse transcription was performed to obtain cDNA. Quantification of the selective genes by real time quantitative Polymerase Chain Reaction (qPCR) was performed with TaqMan universal PCR Master Mix on the BIO-RAD CFX 384 Touch Real Time PCR System. The following setting were used: 50° C. for 2 minutes, 95° C. for 10 minutes, 40 cycles of 95° C. for 15 seconds and 60° C. for 1 minute. 18S rRNA was used as the internal standard.
To account for variation in RNA yields and reverse transcription polymerase chain reaction (RT-PCR), the gene of interest in all samples was normalized to an internal control gene (18S ribosomal RNA) (Cttarget gene−Ct18S=ΔCt).
The relative quantitation or change in mRNA level of selected genes induced by each test compound was expressed in relation to the vehicle control sample (Δctcompound−ΔCtvehicle=ΔΔCt). Fold changes in gene expression were determined by taking 2 to the power of this value (2^−ΔΔt).
% of positive control [(fold change in treated sample)−1]/[(fold change in positive control)−1]×100

Series [1] can be described thus: Three time point assay for plasma, brain and testes distribution after oral dosing. Type of series: in vivo, rat. The conditions noted are these: rat, oral dosing, time point 2 h. The method, then: Exemplary compounds were tested for distribution in plasma, brain and testes tissue following oral dosing of the compounds in rats. Procedures and results are described below.
Male SD Rats were group-housed (up to four animals/sex/cage) in polysulfone cages with certified aspen wood bedding during acclimation and study period.
Certified rodent diet and water was provided to all animals ad libitum, unless fasting for study procedures.
Appropriate amount of test article was accurately weighed and mixed with an appropriate volume of vehicle to get a clear solution or a uniform suspension; vortexing or sonication in water bath may also be need. Animals were dosed within four hours after the formulation is prepared.
For PO dosing, the dose formulation was administered via oral gavage following facility SOPs. The dose volume was determined by the animals' body weight collected on the morning of dosing day. The dose was 10 mg/kg.
Each blood collection (about 1 mL per time point at one or more of 0.5 h, 2 h, 3 h, 5.3 h, and 7 h) was performed from jugular vein or other suitable site of each animal into pre-chilled commercial EDTA-K2 tubes and placed on wet ice until centrifugation.
Blood samples were processed for plasma by centrifugation at approximately 4° C., 3,200 g for 10 min. Plasma was collected respectively and transferred into pre-labeled 96 well plate or polypropylene tubes, quick frozen over dry ice and kept at −60° C. or lower until LC-MS/MS analysis.
Rat brain was perfused with PBS to remove blood before harvest.
After perfusion, brain and testis were homogenized using homogenizing buffer (15 mM PBS (pH7.4):MeOH=2:1) at the ratio of 1:9 (1 g tissue with 9 mL buffer, the dilution ratio is 10). The brain homogenate was kept at −60° C. or lower until LC-MS/MS analysis. General sample processing procedure (brain homogenate & testis homogenate) using 96-well plate: • 1). An aliquot of 40 μL unknown sample, calibration standard, quality control and dilution quality control (if have), single blank, and double blank sample was added to the 96-well plate respectively; • 2). Each sample (except the double blank) was quenched with 400 μL of IS1 respectively (double blank sample was quenched with 400 μL of I), and then the mixture was vortex-mixed for 10 min at 800 rpm and centrifuged for 15 min at 3220×g, 4° C.; • 3). An aliquot of 50 μL supernatant was transferred to another clean 96-well plate and centrifuged for 5 min at 3220×g, 4° C., then the supernatant was directly injected for LC-MS/MS analysis.
• 1. A LC-MS/MS method for the quantitative determination of test compound in biological matrix was developed under Non-GLP compliance. • 2. A calibration curve with at least 6 non-zero calibration standards was applied for the method including LLOQ. • 3. A set of QCs consisting of low, middle, and high concentrations were applied for the method. • 4. N in 1 cassette LC-MS/MS method was developed for samples coming from different studies and the interference among all cassette analytes was evaluated during the method development. • 5. Cassette administration assay was performed if the mass difference (Δmass) among different analytes was more than 4 Da. In this case, interference evaluation was not necessary.
• 1. If sample number within a batch was ≤12, at least one set of standard curve separated with two parts through begin and end of the sequence, was included in the run, and QCs were not required. The recommended injection order was C8, C6, C4, C2, study samples, C7, C5, C3, C1. • 2. If sample number within a batch was >12, one standard curve and two sets of QCs with low, middle and high concentrations were applied for bioanalysis. Meanwhile, QCs number should be more than 5% of study sample number. • 3. Samples with the same types of matrix in different studies were quantified in one analysis run by using the developed N in 1 cassette LC-MS/MS method. • 4. […]

Regarding `Cc1ccc(-c2noc([C@H]3CCC(=O)N3)n2)cc1NC(=O)c1cnc2ccccn12` (racemic) [Compound I-327], the “CYP 3A4 induction mRNA: Mean fold at 10 μM” value with CYP3A4 (donor five), in the series on CYP3A4 (donor four) and in the series on CYP3A4 (donor three) was “+ (induction fold of less than or equal to 2-fold)” throughout.
For the compound `COC(=O)N1CC(c2nc(-c3ccc(C(F)F)c(NC(=O)c4cnc5ccccn45)c3)no2)C1` [Compound I-225], the “CYP 3A4 induction mRNA: Mean fold at 10 μM” value in the series on CYP3A4 (donor four) is reported as “+++ (induction fold of greater than 3-fold to less than or equal to 10-fold)”. In series [1], the Brain concentration worked out at 506 ng/g, the Kp brain/plasma was 0.15, the Kp testes/plasma is recorded as 0.33 and the Plasma concentration was 3420 ng/mL. The compound further registered a Testes concentration in series [1] of 1140 ng/g.
On to `COc1ccc2ncc(C(=O)Nc3cc(-c4noc(C[C@@H](C)O)n4)ccc3C)n2c1` [Compound I-119], for which the “CYP 3A4 induction mRNA: Mean fold at 10 μM” value in the series on CYP3A4 (donor four) is listed as “+ (induction fold of less than or equal to 2-fold)”.
Regarding `Cc1ccc(-c2noc(C3CCN3)n2)cc1NC(=O)c1cnc2ccccn12` (racemic) [Compound I-394], the “CYP 3A4 induction mRNA: Mean fold at 10 μM” value in the series with CYP3A4 (donor five), in the series on CYP3A4 (donor four) and in the series on CYP3A4 (donor three) was “+ (induction fold of less than or equal to 2-fold)” throughout.
For `CCCS(=O)(=O)N1CC(c2nc(-c3ccc(Cl)c(NC(=O)c4cnc5ccccn45)c3)no2)C1` [Compound I-220], the “CYP 3A4 induction mRNA: Mean fold at 10 μM” value in the series on CYP3A4 (donor four) is “+++ (induction fold of greater than 3-fold to less than or equal to 10-fold)”.
In series [1], `Cc1ccc(-c2noc(C3(C)CC(F)(F)CN3)n2)cc1NC(=O)c1cnc2ccccn12` (racemic) [Compound I-328] gave a Brain concentration of 25.4 ng/g, a Kp brain/plasma of 0.42, a Kp testes/plasma of 0.93 and a Plasma concentration of 60.3 ng/mL. Moreover, in series [1], the Testes concentration is 56.2 ng/g.
Regarding `Cc1ccc(-c2noc(CC(=O)O)n2)cc1NC(=O)c1cnc2ccccn12` [Compound I-335], in series [1], the Brain concentration is given as 0 ng/g, the Plasma concentration was determined as 16.7 ng/mL and the Testes concentration was found to be 0 ng/g.
As for `Cc1ccc(-c2noc(C3COC3)n2)cc1NC(=O)c1cnc2ccccn12` [Compound I-138], the “CYP 3A4 induction mRNA: Mean fold at 10 μM” value with CYP3A4 (donor four) was “+ (induction fold of less than or equal to 2-fold)”.
Turning to `Cc1ccc(-c2noc([C@H]3C[C@@H]3F)n2)cc1NC(=O)c1cnc2ccc(F)cn12` [Compound I-288], in the series on CYP3A4 (donor two), the “CYP 3A4 induction mRNA: Mean fold at 10 μM” value was “++++ (induction fold of greater than 10-fold)”.
Consider `Cc1ccc(-c2noc(C3CCS(=O)(=O)C3)n2)cc1NC(=O)c1cnc2ccccn12` (racemic) [Compound I-389], for which, in series [1], the Brain concentration was 63 ng/g, the Kp brain/plasma is 0.03, the Kp testes/plasma is reported as 0.91 and the Plasma concentration amounted to 2030 ng/mL. This compound also gave a Testes concentration in series [1] of 1830 ng/g.
The matching figures for `O=C(Nc1cc(-c2noc([C@H]3C[C@@H]3F)n2)ccc1Br)c1cnc2ccccn12` [Compound I-340]: 3660 ng/g, 1.64, 1.35, 2230 ng/mL and 3010 ng/g.
On to `Cc1ccc(-c2noc(C3CCS(=O)(=O)N3)n2)cc1NC(=O)c1cnc2ccccn12` (racemic) [Compound I-330], for which, in series [1], the Brain concentration was found to be 0 ng/g, the Kp testes/plasma amounted to 0.86, the Plasma concentration was found to be 117 ng/mL and the Testes concentration is listed as 100 ng/g.
In series [1], `Cc1nc(-c2ccc(C)c(NC(=O)c3cnc4ccccn34)c2)no1` [Compound I-360] had a Brain concentration of 3420 ng/g, a Kp brain/plasma of 0.94, a Kp testes/plasma of 0.81 and a Plasma concentration of 3650 ng/mL. Also, in series [1], the Testes concentration came out at 2960 ng/g.

The record behind these values is patent US20240254119A1 (THIRD HARMONIC BIO, INC., priority 2022, published 2024).
